Measured values published in patent publication US8507756B2, “Plant protection” (Plant Bioscience Limited, priority 2007, dated 2013).

How the values were obtained:
Type in all cases: in vivo
[1] = system: Tetranychus urticae (two-spotted spider mite); experiment: JA seed treatment, tomato plants challenged with two-spotted spider mite; conditions: tomato cv. Carousel
Experimental: (§1) Tomato, pepper, maize and wheat seeds were treated with 3 mM JA or 1.5 mM JA solutions or with 3 mM methyl jasmonate (MeJA) or with deionised water containing 42.8 mM ethanol (control) by full submersion of up to 40 seeds in a Petri dish of solution wrapped in foil for a period of 24 hours at 4° C. in a fridge. A temperature of 4° C. was used both to prevent degradation of the jasmonic acid solutions and to prevent germination of the seeds.
The seeds were then removed from the treatment solution and washed in 1 liter of deionised water for 5 minutes to remove the JA or MeJA coating the outside of the seeds.
Tomato seeds were sown in rockwool blocks and grown on peat-based compost in glass houses at 12° C.-28° C. under artificial light on a 16 hour light and 8 hour dark cycle for 48, 56 or 70 days.
Tomato plants were then challenged with Tetranychus urticae (two-spotted spider mite) which were allowed to feed for 9 days, Manduca sexta (tobacco hornworm) caterpillars which were allowed to feed for 4 days or Myzus persicae (aphid), which were allowed to feed for 10 or 12 days. In each case these organisms were restricted to the plant on which they had originally been placed. Pepper plants were challenged with Myzus persicae (aphid), which were allowed to feed for 2 weeks. Maize and wheat plants were challenged with Spodoptera exempta caterpillars which were allowed to feed for 2 days (maize) or 3 days (wheat).
The effect of Tetranychus urticae on plants was measured by means of counting the number of live and dead mites on each plant and the number of mite eggs present using a dissecting microscope.
Seeds of a UK commercial F1 hybrid tomato variety (cv. Carousel) were treated with either 1.5 or 3.0 mM jasmonic acid (JA) and 42.8 mM ethanol in deionised H2O for a period of 24 hours at 4° C. in the dark. Those seeds were then removed from solution and washed in deionised H2O only to remove the JA coating the outside of the seed. Those seed were then germinated in a commercial manner using rockwool blocks and were grown on under glasshouse conditions appropriate to this crop. Plants were challenged with two-spotted spider mite (Tetranychus urticae) 7 weeks after treatment a common crop pest, acting here as a “model herbivore”.

[2] = system: tomato (Solanum lycopersicum cv "Carousel") seeds; experiment: Effect of JA seed treatment on seed germination of tomato
Excerpt: The illustrated data are means of 10 replicate populations+/−standard error of the mean, and the line is a fitted dose response.

Spodoptera exempta = experiment: JA seed treatment, maize plants challenged with Spodoptera exempta caterpillars; conditions: maize cv. Earligold, seed treatment 1.5 mM JA, 2 days feeding
Experimental: as §1
Wheat and maize seeds were sown in peat-based compost and grown in unheated glass houses with supplementary lighting. (600 W SON-T lamps, for 16 hours per day) in the autumn.
Tomato plants were then challenged with Tetranychus urticae (two-spotted spider mite) which were allowed to feed for 9 days, Manduca sexta (tobacco hornworm) caterpillars which were allowed to feed for 4 days or Myzus persicae (aphid), which were allowed to feed for 10 or 12 days. […]
The effect of Manduca sexta or Spodoptera exempta on plants was determined by measurement of the leaf area eaten, measured using a leaf area meter.
Seeds of maize cv. […] Caterpillars were allowed to feed on the plants for 2 days and the area of grazed leaves was then measured. […] When expressed as the area of leaf consumed per unit weight of caterpillars the reduction in plants grown from seed treated with JA was even more pronounced (40%, p<0.001, FIG. 9). […]

Myzus persicae = experiment: JA seed treatment, sweet pepper plants challenged with aphids; conditions: sweet pepper cv Biscayne, seed treatment 1.5 mM JA
Experimental: Tomato, pepper, maize and wheat seeds were treated with 3 mM JA or 1.5 mM JA solutions or with 3 mM methyl jasmonate (MeJA) or with deionised water containing 42.8 mM ethanol (control) by full submersion of up to 40 seeds in a Petri dish of solution wrapped in foil for a period of 24 hours at 4° C. in a fridge. A temperature of 4° C. was used both to prevent degradation of the jasmonic acid solutions and to prevent germination of the seeds. Pepper seeds were sown in peat-based compost and grown in unheated glass houses under ambient conditions in the summer. Tomato plants were then challenged with Tetranychus urticae (two-spotted spider mite) which were allowed to feed for 9 days, Manduca sexta (tobacco hornworm) caterpillars which were allowed to feed for 4 days or Myzus persicae (aphid), which were allowed to feed for 10 or 12 days. In each case these organisms were restricted to the plant on which they had originally been placed. Pepper plants were challenged with Myzus persicae (aphid), which were allowed to feed for 2 weeks. […] The effect of Myzus persicae on plants was determined by counting the aphid population on each plant under a dissecting microscope at ×10 magnification. […] Aphids were allowed to feed on the plants for two weeks and the growth of the aphid population over this period was then measured. […]

[3] = system: Tetranychus urticae (two-spotted spider mite); experiment: Spider mite challenge of untreated tomato plants grown adjacent to plants from JA-treated seeds; conditions: tomato cv Carousel; neighbours of 1.5 or 3.0 mM JA seed treatment
Experimental: The effect of Tetranychus urticae on plants was measured by means of counting the number of live and dead mites on each plant and the number of mite eggs present using a dissecting microscope. Seeds of a UK commercial F1 hybrid tomato variety (cv. Carousel) were treated with either 1.5 or 3.0 mM jasmonic acid (JA) and 42.8 mM ethanol in deionised H2O for a period of 24 hours at 4° C. in the dark. Those seeds were then removed from solution and washed in deionised H2O only to remove the JA coating the outside of the seed. Those seed were then germinated in a commercial manner using rockwool blocks and were grown on under glasshouse conditions appropriate to this crop. Plants were challenged with two-spotted spider mite (Tetranychus urticae) 7 weeks after treatment a common crop pest, acting here as a “model herbivore”. […] The effect was observed on comparing the controls located at least 10 meters away. (FIG. 6). The illustrated data are means of 10 replicates+/−standard error of the mean. […] The effect was again observed on comparing the controls located at least 10 meters away. (FIG. 7). The illustrated data are means of 10 replicates+/−standard error of the mean.

- JA concentration that significantly reduced the final percentage germination ([2]; JA between 0.001 and 50 mM tested, germination 7 days after sowing): > 10 mM
- Final percentage germination ([2]; seed treatment 1.5 or 3.0 mM JA): no significant effects
- Delay of seed germination ([2]; seed treatment 1.5 or 3.0 mM JA, 24 hours at 4 C in the dark): delayed by approximately one day
SMILES: CC/C=C\C[C@H]1C(=O)CC[C@@H]1CC(=O)O [JA, jasmonic acid]
- Observed resistance induced against spider mite ([1]; 8 weeks after application of the JA to the seeds): significant
- Visual damage caused by red spider mite attack (pale stippling of the leaf surface) ([1]; seed treatment 3.0 mM JA vs control, challenged 7 weeks after treatment): substantially reduced
- Reproductive rate of the mite measured by egg production (eggs per adult female) compared with control plants ([1]; seed treatment 1.5 or 3.0 mM JA, 10 replicates): significant reduction
- Population of two-spotted spider mite on the leaves (number of live mites) compared with control plants ([1]; seed treatment 1.5 or 3.0 mM JA, mites fed 9 days, 10 replicates): significant reduction
- Area of leaf consumed per unit weight of caterpillars, reduction vs controls (Spodoptera exempta; p<0.001): 40%
- Leaf area consumed by caterpillars, lower than controls (Spodoptera exempta; tassel stage approx. 10 weeks after seed treatment, p<0.05): 38%
- Rate of aphid population growth compared with controls (Myzus persicae; challenged 8 weeks after seed treatment, 2 weeks feeding): significant (p<0.001) reduction
- Aphid population growth rate from fitted growth curves (Myzus persicae; control 0.19+/-0.011): 0.11+/−0.016
- Population of T. urticae on untreated plants grown adjacent to plants from JA-treated seeds, vs controls at least 10 meters away [3]: significant reduction
- Reproductive rate of the mite (egg production) on untreated plants grown adjacent to plants from JA-treated seeds, vs controls at least 10 meters away [3]: significant reduction
